This is an account of results in publication PMC6522510 (Nature Communications, 2019).

Each structure is given as a SMILES string. pEC50: −log10 of the molar value.

What all share (test): cells
Holding throughout (parameters): species or system AML cell lines (8); Secondary HTS, 10-point dose-response in triplicate, Cell Titer Glo viability, four-parameter fit EC50

One experiment has as its system CMK. As to conditions: Homo sapiens, CMK, 72 h, read-out: CMK.
In another experiment the test system is MV4-11. As to conditions: Homo sapiens, MV4-11, 72 h, read-out: MV4-11.
The test system of the next experiment is MOLM-13. The note with it: Homo sapiens, MOLM-13, 72 h, read-out: MOLM-13.
The next experiment has as its system M07e. The note with it: M-07e, 72 h, read-out: M07e.
For another experiment, the system named is U937. As to conditions: Homo sapiens, U-937, 72 h, read-out: U937.
Another experiment deals with CHRF288-11. The note with it: 72 h, read-out: CHRF288-11.
In the next experiment the test system is CMS. As to conditions: 72 h, read-out: CMS.
In a further experiment the test system is ML-2. The note with it: Homo sapiens, ML-2, 72 h, read-out: ML-2.

`Cc1c(Cn2c(C)nc3c(C(=O)O)cc(N4CCOCC4)cc32)cccc1C(F)(F)F` [GSK-2636771]: the pEC50 in the experiment with CMK, in the experiment with MV4-11, in the experiment with MOLM-13, in the experiment on M07e, in the experiment on U937 and in the experiment with CHRF288-11 was under 5.00 each time. In addition, the pEC50 in the experiment on CMS and in the experiment with ML-2 was under 5.00 in each case.
For the compound `Fc1ccc(CNc2ncnc3ccc(F)cc23)cc1` [SJ000785893, SPAUTIN-1], the pEC50 in the experiment on CMK is under 5.00; with MV4-11, under 5.00; with MOLM-13 it was under 5.00; in the experiment on M07e, under 5.00; in the experiment on U937, 5.52; in the experiment with CHRF288-11, under 5.00. Besides, the pEC50 in the experiment with CMS and in the experiment with ML-2 was under 5.00 in each case.
As to `Cc1noc(-c2ccc(-c3ccc(CC(=O)O)cc3)cc2)c1NC(=O)O[C@H](C)c1ccccc1` [SJ000833854, AM-095], the pEC50 is under 5.00 in the experiment with CMK; under 5.00 in the experiment on MV4-11; 8.17 in the experiment with MOLM-13; under 5.00 with M07e; under 5.00 with U937; under 5.00 in the experiment on CHRF288-11. Further, the pEC50 with CMS and with ML-2 was under 5.00 each time.
As for `O=C(O)C(Cc1c[nH]c2ccccc12)N1C(=O)c2ccccc2C1=O` (stereo not drawn) [SJ000784279, RG108], the pEC50 in the experiment on CMK, in the experiment on MV4-11, with MOLM-13, with M07e, in the experiment with U937 and with CHRF288-11 was under 5.00 throughout. The pEC50 with CMS and in the experiment with ML-2 was under 5.00 in each case.
As to `Nc1nc(=O)n([C@H]2C[C@H](O)[C@@H](CO)O2)cc1F` [SJ000785889, 5-FLUORODEOXYCYTIDINE], the pEC50 in the experiment with CMK was 6.85; in the experiment on MV4-11 it was under 5.00; in the experiment on MOLM-13, 6.35; in the experiment on M07e, under 5.00; in the experiment with U937, under 5.00; with CHRF288-11 it was 5.50. Also, the pEC50 in the experiment with CMS was under 5.00; in the experiment on ML-2, 8.05.
Consider `O=c1cc(N2CCOCC2)oc2c(-c3cccc4c3sc3ccccc34)cccc12` [SJ000834137, NU 7441], for which the pEC50 in the experiment on CMK is under 5.00; in the experiment with MV4-11 it was under 5.00; with MOLM-13, under 5.00; in the experiment with M07e, 6.52; in the experiment on U937, under 5.00; with CHRF288-11, under 5.00. Besides, the pEC50 in the experiment with CMS and with ML-2 was under 5.00 throughout.
For the compound `CO[C@@H]1[C@@H](OC(N)=O)[C@@H](O)[C@H](Oc2ccc3c(O)c(NC(=O)c4ccc(O)c(CC=C(C)C)c4)c(=O)oc3c2C)OC1(C)C` [NOVOBIOCIN SODIUM], the pEC50 with CMK, in the experiment on MV4-11, with MOLM-13, in the experiment with M07e, with U937 and in the experiment on CHRF288-11 was under 5.00 each time. In addition, the pEC50 in the experiment with CMS and in the experiment on ML-2 was under 5.00 throughout.
In the case of `O=C(c1ccc(Nc2nccc(-c3cc4ccccc4s3)n2)cc1)N1CCC(N2CCCC2)CC1` [SJ000806482, IKK 16], the pEC50 in the experiment with CMK was 5.55; in the experiment with MV4-11, under 5.00; in the experiment with MOLM-13, under 5.00; in the experiment with M07e, 5.36; with U937, 5.82; in the experiment on CHRF288-11, 6.00. Also, the pEC50 with CMS is 6.35; with ML-2 it was 6.38.
Regarding `Nc1nc(OCc2cc(Br)cs2)c2[nH]cnc2n1` [LOMEGUATRIB], the pEC50 in the experiment on CMK, in the experiment on MV4-11, in the experiment with MOLM-13, in the experiment with M07e, in the experiment on U937 and with CHRF288-11 was under 5.00 each time. Also, the pEC50 in the experiment with CMS and in the experiment on ML-2 was under 5.00 throughout.
On to `CCCS(=O)(=O)Nc1ccc(F)c(C(=O)c2c[nH]c3ncc(-c4ccc(Cl)cc4)cc23)c1F` [VEMURAFENIB], for which the pEC50 in the experiment on CMK, with MV4-11, in the experiment with MOLM-13, with M07e, with U937 and in the experiment with CHRF288-11 was under 5.00 throughout. For the same compound, the pEC50 with CMS and in the experiment on ML-2 was under 5.00 each time.
With `CSCC[C@H](NC(=O)[C@H](Cc1ccccc1)NC[C@@H](NC[C@@H](N)CS)C(C)C)C(=O)O` [SJ000803726, FTASE INHIBITOR I], the pEC50 in the experiment with CMK, in the experiment with MV4-11, in the experiment on MOLM-13, in the experiment on M07e, in the experiment on U937 and in the experiment on CHRF288-11 was under 5.00 each time. Further, the pEC50 with CMS and in the experiment on ML-2 was under 5.00 in each case.
Take `CC(C)(C(=O)NCC(F)(F)C(F)(F)F)C(=O)N[C@@H]1C(=O)Nc2ccccc2-c2ccccc21` [RO-4929097]: the pEC50 with CMK, in the experiment on MV4-11, with MOLM-13, with M07e, with U937 and in the experiment on CHRF288-11 was under 5.00 throughout. Moreover, the pEC50 in the experiment with CMS and with ML-2 was under 5.00 in each case.
Take `O=C(NCC1(c2nc(-c3ccccc3)cs2)CCOCC1)c1cccc(-c2noc(C(F)(F)F)n2)c1` [SJ000833838, TMP269]: the pEC50 in the experiment on CMK was under 5.00; in the experiment on MV4-11, under 5.00; in the experiment with MOLM-13 it was under 5.00; with M07e, 6.72; in the experiment on U937, under 5.00; in the experiment with CHRF288-11 it was under 5.00. For the same compound, the pEC50 in the experiment with CMS and in the experiment with ML-2 was under 5.00 in each case.
As for `c1ccc(-c2nn3c(c2-c2ccnc4cc(OCCN5CCOCC5)ccc24)CCC3)nc1` [SJ000834150, LY2109761], the pEC50 with CMK, in the experiment with MV4-11, with MOLM-13, in the experiment with M07e, with U937 and with CHRF288-11 was under 5.00 throughout. Further, the pEC50 in the experiment with CMS and with ML-2 was under 5.00 in each case.
Regarding `CCc1c(O)cc(O)c(C(=O)c2ccc(OCCN3CCOCC3)c(OC)c2)c1CC(=O)N(CCOC)CCOC` [SJ000821566, KW-2478], the pEC50 in the experiment with CMK was 5.36; with MV4-11, 7.15; in the experiment with MOLM-13 it was 6.96; with M07e, under 5.00; with U937, under 5.00; in the experiment with CHRF288-11, 5.20. The results for the pEC50 in the experiment on CMS and in the experiment on ML-2 were under 5.00 and 6.80, respectively.
As to `O=C1Nc2ccc(I)cc2/C1=C/c1cc(Br)c(O)c(Br)c1` [SJ000287883, GW 5074], the pEC50 with CMK, in the experiment with MV4-11, in the experiment with MOLM-13, in the experiment with M07e, in the experiment on U937 and in the experiment on CHRF288-11 was under 5.00 each time. The pEC50 in the experiment with CMS and with ML-2 was under 5.00 throughout.
In the case of `Cc1cc(Nc2ccc(NC(=O)c3ccc(Nc4ccnc5ccccc45)cc3)cc2)nc(N)n1` [SJ000785906, SGI-1027], the pEC50 with CMK was under 5.00; in the experiment on MV4-11, 5.92; in the experiment on MOLM-13 it was 5.85; in the experiment with M07e, 5.80; with U937, 6.12; in the experiment on CHRF288-11, 5.55. The pEC50 in the experiment with CMS is 5.00; in the experiment with ML-2 it was 5.59.
`Nc1nc(NC2CC2)cc(-c2cccc(Cl)c2Cl)n1` [SJ000834160, TH588]: the pEC50 in the experiment on CMK was 5.32; with MV4-11, under 5.00; in the experiment on MOLM-13, under 5.00; with M07e it was under 5.00; in the experiment on U937, 5.52; in the experiment on CHRF288-11, under 5.00. Also, the pEC50 with CMS was under 5.00; in the experiment on ML-2 it was 5.00.
For `Cc1ccccc1-n1c(Cn2cnc3c(N)ncnc32)nc2cccc(C)c2c1=O` [SJ000571308, IC-87114], the pEC50 in the experiment with CMK, in the experiment with MV4-11, in the experiment on MOLM-13, in the experiment on M07e, with U937 and in the experiment on CHRF288-11 was under 5.00 in each case. The pEC50 in the experiment on CMS and in the experiment on ML-2 was under 5.00 in each case.
Take `COCCCn1c(N)c(C(=O)NC2CCCC2)c2nc3ccccc3nc21` [SJ000479457, CAY10591]: the pEC50 with CMK, in the experiment on MV4-11, with MOLM-13, in the experiment with M07e, with U937 and with CHRF288-11 was under 5.00 throughout. Moreover, the pEC50 in the experiment with CMS and in the experiment with ML-2 was under 5.00 throughout.
As to `COc1cc(C(=O)NC2CCN(C)CC2)c(F)cc1Nc1ncc2c(n1)N(C1CCCC1)CC(F)(F)C(=O)N2C` [TAK-960], the pEC50 in the experiment on CMK, in the experiment on MV4-11, in the experiment with MOLM-13, in the experiment with M07e, in the experiment with U937 and in the experiment with CHRF288-11 was under 5.00 in each case. For the same compound, the pEC50 with CMS and in the experiment with ML-2 was under 5.00 each time.
